We go through 26 compounds from patent publication US12435128B2, “Method for predicting therapeutic effect of LSD1 inhibitor based on expression of INSM1” (TAIHO PHARMACEUTICAL CO., LTD., priority 2017, dated 2025).

Molecules are shown by their SMILES.

The test system of the first experiment is HEL cells (human acute myelocytic leukemia cell lines). Briefly: Cell-growth inhibition test: HEL cells. The class given is cell-based. The note with it: HEL cells; read-out: IC50 (nM), Cell-Growth Inhibition Test: HEL Cells. Here is the method:
(§1) Under the following conditions, an in vitro cell-growth inhibition test was performed with respect to HEL cells (human acute myelocytic leukemia cell lines), NCI-H1417 cells (human small-cell lung cancer cell lines), and NCI-H146 cells (human small-cell lung cancer cell lines).
(§2) The cells with the Example compound or with dimethylsulfoxide alone were cultured at 37° C. in a 5% carbon-dioxide-containing incubator for 5 days (HEL cells) or 10 days (NCI-H1417 cells and NCI-H146 cells). After culture, the plate was allowed to stand at room temperature for 30 minutes, and 100 μL of the supernatant was removed from each well to leave 100 μL of the cell culture solution. To each well containing the remaining 100 μL of the cell culture solution, the same amount of CellTiter-Glo 2.0 Assay (Promega, Cat #: G9242) was added. The microplate was shaken with a plate mixer for 1 minute and then allowed to stand in a dark place for 10 minutes. Thereafter, the luminescence intensity of viable cells in each well was measured using a microplate reader (PerkinElmer, EnSpire). […] Cell growth rate(%)=T/C×100 • T: The luminescence intensity in a well to which the test compound was added (count per second) • C: The luminescence intensity in a well to which dimethylsulfoxide alone was added (count per second)
Regarding `Cn1ncc2cc(-c3ccc(C(=O)N4[C@@H]5CC[C@H]4C[C@H](N)C5)cc3-c3ccc(C#N)c(F)c3)c(F)cc21` [Example 24, 4-[5-[(3-exo)-3-amino-8-azabicyclo[3.2.1]octane-8-carbonyl]-2-(6-fluoro-1-methyl-indazol-5-yl)phenyl]-2-fluoro-benzonitrile], the IC50 (commonly the concentration needed to halve the response being measured) was 3.5 nM.
For `Cc1ccc(-c2ccc(C(=O)N3CC[C@H](N)C3)cc2-c2ccc([N+](=O)[O-])cc2)cc1` [Example 99, [(35)-3-aminopyrrolidin-1-yl]-[3-(4-nitrophenyl)-4-(p-tolyl)phenyl]methanone], the IC50 was determined as 11 nM.
Same read-out and setting: under `N#Cc1ccc(-c2cc(C(=O)N3[C@@H]4CC[C@H]3C[C@H](N)C4)ccc2-c2ccc3cccnc3c2F)cc1F` [Example 105, 4-[5-[(3-exo)-3-amino-8-azabicyclo[3.2.1]octane-8-carbonyl]-2-(8-fluoro-7-quinolyl)phenyl]-2-fluoro-benzonitrile] stands 5.74 nM.
For the compound `Cn1cnc2cc(-c3ccc(C(=O)N4[C@@H]5CC[C@H]4C[C@@H](N)C5)cc3-c3ccc(C#N)c(F)c3)c(F)c(F)c21` [Example 126, 4-[5-[(3-endo)-3-amino-8-azabicyclo[3.2.1]octane-8-carbonyl]-2-(6,7-difluoro-1-methyl-benzimidazol-5-yl)phenyl]-2-fluoro-benzonitrile], the IC50 amounted to 5.29 nM.
On the same count and under the same terms, under `CN1CCOc2cc(-c3ccc(C(=O)N4C5CCC4CC(N)C5)cc3-c3ccc(C#N)c(F)c3)ccc21` (stereo not drawn) [Example 128, 4-[5-[(3-endo)-3-amino-8-azabicyclo[3.2.1]octane-8-carbonyl]-2-(4-methyl-2,3-dihydro-1,4-benzoxazin-7-yl)phenyl]-2-fluoro-benzonitrile] stands 5.7 nM; under `Cc1ccc(-c2ccc(C(=O)N3C4CCC3CC(N)C4)cc2-c2ccc(C#N)c(F)c2)c(F)c1F` (stereo not drawn) [Example 144, 5′-((3-endo)-3-amino-8-azabicyclo[3.2.1]octane-8-carbonyl)-2″,3,3″-trifluoro-4″-methyl-[1,1′:2′,1″-terphenyl]-4-carbonitrile], 0.27 nM.

Staying with this experiment, now noted: Homo sapiens, HEL, read-out: IC50 (nM), Cell-Growth Inhibition Test: HEL Cells.
For `CC(C)(O)Cn1ccc2cc(-c3ccc(C(=O)N4[C@H]5CC[C@@H]4[C@H](N)C5)cc3-c3ccc(C#N)c(F)c3)c(F)cc21` (single isomer, unassigned; isomer-b) [Example 171], the IC50 worked out at 0.08 nM.
On the same count and under the same terms, in the case of `Cc1ccc(-c2ccc(C(=O)N3CCC4(CNC4)C3)cc2-c2ccc(C#N)cc2)cc1` [Example 5, 4-[5-(2,7-diazaspiro[3.4]octane-7-carbonyl)-2-(p-tolyl)phenyl]benzonitrile] it was 34.8 nM; in that of `N#Cc1ccc(-c2cc(C(=O)N3CC[C@H](N)C3)ccc2-c2ccc(CC3(O)CC3)cc2)cc1` [Example 59, 4-[5-[(3S)-3-aminopyrrolidine-1-carbonyl]-2-[4-[(1-hydroxycyclopropyl)methyl]phenyl]phenyl]benzonitrile], 32 nM.
Still for that read-out and setting: in the case of `N#Cc1ccc(-c2cc(C(=O)N3CC[C@H](N)C3)ccc2-c2ccc(C3(C4(O)CC4)CC3)cc2)cc1` [Example 68, 4-[5-[(3S)-3-aminopyrrolidine-1-carbonyl]-2-[4-[1-(1-hydroxycyclopropyl)cyclopropyl]phenyl]phenyl]benzonitrile] it was 23.9 nM; in that of `COCCc1ccc(-c2ccc(C(=S)N3CC[C@H](N)C3)cc2-c2ccc(C#N)c(F)c2)c(F)c1` [Example 94, 4-[5-[(3S)-3-aminopyrrolidine-1-carbothioyl]-2-[2-fluoro-4-(2-methoxyethyl)phenyl]phenyl]-2-fluoro-benzonitrile], 29.4 nM.
Same read-out and setting: under `CN(C)c1ccc(-c2ccc(C(=O)N3CC[C@H](N)C3)cc2-c2ccc(C#N)c(F)c2)cn1` [Example 100, 4-[5-[(3S)-3-aminopyrrolidine-1-carbonyl]-2-[6-(dimethylamino)-3-pyridyl]phenyl]-2-fluoro-benzonitrile] stands 12.8 nM; under `CN1CCc2cc(-c3ccc(C(=O)N4CC[C@H](N)C4)cc3-c3ccc(C#N)c(F)c3)ccc21` [Example 117, 4-[5-[(3S)-3-aminopyrrolidine-1-carbonyl]-2-(1-methylindolin-5-yl)phenyl]-2-fluoro-benzonitrile], 5.54 nM; under `CC(C)(O)Cn1ccc2cc(-c3ccc(C(=O)N4CC5CNCC5C4)cc3-c3ccc(C#N)c(F)c3)c(F)c(F)c21` (centres unmarked) [Example 203, 2′-(6,7-difluoro-1-(2-hydroxy-2-methylpropyl)-1H-indol-5-yl)-3-fluoro-5′-(octahydropyrrolo[3,4-c]pyrrole-2-carbonyl)-[1,1′-biphenyl]-4-carbonitrile], 2.45 nM.

The same experiment, now with this note: read-out: IC50 (nM), Cell-Growth Inhibition Test: HEL Cells.
Regarding `Cn1cc(C(=O)O)c2cc(-c3ccc(C(=O)N4[C@@H]5CC[C@H]4[C@@H](N)C5)cc3-c3ccc(C#N)c(F)c3)c(F)cc21` (single isomer, unassigned) [Example 224], the IC50 came out at 46.2 nM.
Consider `CC(C)n1c(=O)sc2cc(-c3ccc(C(=O)N4C5CCC4CC(N)C5)cc3-c3ccc(C#N)c(F)c3)ccc21` (stereo not drawn) [Example 138, 5′-((3-endo)-3-amino-8-azabicyclo[3.2.1]octane-8-carbonyl)-3-fluoro-2′-(3-isopropyl-2-oxo-2,3-dihydrobenzo[d]thiazol-6-yl)-[1,1′-biphenyl]-4-carbonitrile], for which the IC50 is 0.9 nM.
The same measure, in the same setting: under `CC(C)(C)n1nnc2cc(-c3ccc(C(=O)N4C5CCC4CC(N)C5)cc3-c3ccc(C#N)c(F)c3)c(F)cc21` (stereo not drawn) [Example 139, 5′-((3-endo)-3-amino-8-azabicyclo[3.2.1]octane-8-carbonyl)-2′-(1-(tert-butyl)-6-fluoro-1H-benzo[d][1,2,3]triazol-5-yl)-3-fluoro-[1,1′-biphenyl]-4-carbonitrile] stands 16.9 nM; under `Cn1nnc2cc(-c3ccc(C(=O)N4[C@@H]5CC[C@H]4C[C@@H](N)C5)cc3-c3ccc(C#N)c(F)c3)c(F)c(F)c21` [Example 145, 5′-((3-endo)-3-amino-8-azabicyclo[3.2.1]octane-8-carbonyl)-2′-(6,7-difluoro-1-methyl-1H-benzo[d][1,2,3]triazol-5-yl)-3-fluoro-[1,1′-biphenyl]-4-carbonitrile], 1.81 nM.
Consider `CCn1nnc2cc(-c3ccc(C(=O)N4[C@@H]5CC[C@H]4C[C@H](N)C5)cc3-c3ccc(C#N)c(F)c3)c(F)cc21` [Example 160, 5′-((3-endo)-3-amino-8-azabicyclo[3.2.1]octane-8-carbonyl)-2′-(1-ethyl-6-fluoro-1H-benzo[d][1,2,3]triazol-5-yl)-3-fluoro-[1,1′-biphenyl]-4-carbonitrile], for which the IC50 stood at 7.03 nM.
Take `COc1c(F)c(-c2ccc(C(=O)N3[C@@H]4CC[C@H]3C[C@@H](N)C4)cc2-c2ccc(C#N)c(F)c2)cc2cnn(CC(C)(C)O)c12` [Example 186, 5′-((3-endo)-3-amino-8-azabicyclo[3.2.1]octane-8-carbonyl)-3-fluoro-2′-(6-fluoro-1-(2-hydroxy-2-methylpropyl)-7-methoxy-1H-indazol-5-yl)-[1,1′-biphenyl]-4-carbonitrile]: the IC50 stood at 6.3 nM.
The same measure, in the same setting: in the case of `CC(C)(O)Cn1ncc2cc(-c3ccc(C(=O)N4[C@@H]5CC[C@H]4C[C@@H](N)C5)cc3-c3ccc(C#N)c(F)c3)c(F)c(F)c21` [Example 188, 5′-((3-endo)-3-amino-8-azabicyclo[3.2.1]octane-8-carbonyl)-2′-(6,7-difluoro-1-(2-hydroxy-2-methylpropyl)-1H-indazol-5-yl)-3-fluoro-[1,1′-biphenyl]-4-carbonitrile] it was 5.95 nM.

In the next experiment the test system is NCI-H1417 cells (human small-cell lung cancer cell lines). Description: Cell-growth inhibition test: NCI-H1417 cells. The note with it: Homo sapiens, NCI-H1417, read-out: IC50 (nM), Cell-Growth Inhibition Test: NCI-H1417 Cells. It is filed as cell-based. The method, then:
as §1, §2
As to `Cn1nnc2cc(-c3ccc(C(=O)N4CC[C@H](NC5CCC5)C4)cc3-c3ccc(C#N)c(F)c3)c(F)cc21` [Example 116, 4-[5-[(3S)-3-(cyclobutylamino)pyrrolidine-1-carbonyl]-2-(6-fluoro-1-methyl-benzotriazol-5-yl)phenyl]-2-fluoro-benzonitrile], the IC50 stood at 29.5 nM.
For `Cn1c(=O)oc2cc(-c3ccc(C(=O)N4CC[C@H](N)C4)cc3-c3ccc(C#N)c(F)c3)ccc21` [Example 119, 4-[5-[(3S)-3-aminopyrrolidine-1-carbonyl]-2-(3-methyl-2-oxo-1,3-benzooxazol-6-yl)phenyl]-2-fluoro-benzonitrile], the IC50 was 23.9 nM.

Still in this experiment, the particulars now being: NCI-H1417 cells; read-out: IC50 (nM), Cell-Growth Inhibition Test: NCI-H1417 Cells.
Regarding `CC(C)(O)Cc1ccc(-c2ccc(C(=O)N3C4CCC3CC(N)C4)cc2-c2ccc(C#N)c(F)c2)c(F)c1` (stereo not drawn) [Example 28, 4-[5-[(3-exo)-3-amino-8-azabicyclo[3.2.1]octane-8-carbonyl]-2-[2-fluoro-4-(2-hydroxy-2-methyl-propyl)phenyl]phenyl]-2-fluoro-benzonitrile], the 50% inhibitory concentration (IC50) amounted to 4.4 nM.
Same read-out and setting: in the case of `N#Cc1ccc(-c2cc(C(=O)N3C4CCC3CC(N)C4)ccc2-c2ccc3cccnc3c2)cc1F` (stereo not drawn) [Example 107, 4-[5-[(3-exo)-3-amino-8-azabicyclo[3.2.1]octane-8-carbonyl]-2-(7-quinonyl)phenyl]-2-fluoro-benzonitrile] it was 18.2 nM; in that of `COCCc1ccc(-c2ccc(C(=O)N3C4CCC3CC(NC(C)C)C4)cc2-c2ccc(C#N)c(F)c2)c(F)c1` (stereo not drawn) [Example 112, 2-fluoro-4-[2-[2-fluoro-4-(2-methoxyethyl)phenyl]-5-[(3-exo)-3-(isopropylamino)-8-azabicyclo[3.2.1]octane-8-carbonyl]phenyl]benzonitrile], 20.5 nM.
